# Assay results taken from patent US20030055092A1, “Remedies for ischemic stroke” (priority 1998, published 2003).
# Columns and labels:
# [1] = test system: gerbils exposed to 5 min of cerebral ischemia; details: cited from earlier work
# mGluR4 = target: T1, mGluR4 (Rattus norvegicus, UniProt P31423); test: forskolin-induced cAMP formation in mGluR4-expressing CHO cells; type: cell-based; details: up to 100 μM
# T1 construct: expressed in transfected cells; host or cells: CHO
# Protocol: (§1) NIH3T3 cells expressed mGluR1 α and mGluR5a individually were cultured in DMEM medium containing 10% dialyzed fetal bovine serum and 100 units/ml, 0.1 mg/ml streptomycin sulfate. CHO cells which expressed mGluR2, R3, R4, R6 and R7 individually were cultured in DMEM medium containing 10% dialyzed fetal bovine serum, 100 units/ml, 0.1 mg/ml streptomycin sulfate and 2 mM glutamine. Using the cells expressing mGluR2, R3, R4, R6 and R7 cAMP formation induced by forskolin in the presence of IBMX was measured using a cAMP measuring kit as previously described (Neuron, 8, 169-179, 1992).
# mGluR6 = target: T2, mGluR6 (Rattus norvegicus, UniProt P35349); test: forskolin-induced cAMP formation in mGluR6-expressing CHO cells; type: cell-based; details: up to 100 μM
# T2 construct: expressed in transfected cells; host or cells: CHO
# T2 sequence (P35349 24-871): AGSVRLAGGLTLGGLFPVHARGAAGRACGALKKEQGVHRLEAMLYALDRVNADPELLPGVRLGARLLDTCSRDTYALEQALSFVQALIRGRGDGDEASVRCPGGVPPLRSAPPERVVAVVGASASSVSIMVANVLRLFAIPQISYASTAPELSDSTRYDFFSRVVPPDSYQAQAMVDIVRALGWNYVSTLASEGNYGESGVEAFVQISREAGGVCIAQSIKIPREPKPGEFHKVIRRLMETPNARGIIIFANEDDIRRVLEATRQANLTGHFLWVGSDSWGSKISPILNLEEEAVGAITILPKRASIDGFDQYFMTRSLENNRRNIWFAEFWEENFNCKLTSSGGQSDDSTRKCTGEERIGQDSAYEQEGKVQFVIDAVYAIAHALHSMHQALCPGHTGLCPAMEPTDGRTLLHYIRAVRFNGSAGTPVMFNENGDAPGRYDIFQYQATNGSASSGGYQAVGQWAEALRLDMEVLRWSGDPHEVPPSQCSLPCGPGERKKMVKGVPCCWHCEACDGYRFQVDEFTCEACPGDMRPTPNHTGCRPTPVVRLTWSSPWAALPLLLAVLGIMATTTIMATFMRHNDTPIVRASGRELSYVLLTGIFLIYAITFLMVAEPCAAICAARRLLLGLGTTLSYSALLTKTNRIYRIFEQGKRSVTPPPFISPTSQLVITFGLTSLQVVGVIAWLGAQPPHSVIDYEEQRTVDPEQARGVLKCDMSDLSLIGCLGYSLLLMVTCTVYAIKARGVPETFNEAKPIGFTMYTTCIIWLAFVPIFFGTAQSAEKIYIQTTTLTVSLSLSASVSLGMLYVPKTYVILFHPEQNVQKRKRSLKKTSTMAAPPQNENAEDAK
# Protocol: as §1
# mGluR1α = target: T3, mGluR1α (Rattus norvegicus, UniProt P23385); test: glutamate-induced phosphatidylinositol (PI) hydrolysis in mGluR1α-expressing cells; type: cell-based; details: 100 μM glutamate, read-out: IC50 for inhibition of glutamate-induced PI formation against mGluR1α
# T3 construct: expressed in transfected cells; host or cells: NIH3T3
# T3 sequence (P23385 19-1199): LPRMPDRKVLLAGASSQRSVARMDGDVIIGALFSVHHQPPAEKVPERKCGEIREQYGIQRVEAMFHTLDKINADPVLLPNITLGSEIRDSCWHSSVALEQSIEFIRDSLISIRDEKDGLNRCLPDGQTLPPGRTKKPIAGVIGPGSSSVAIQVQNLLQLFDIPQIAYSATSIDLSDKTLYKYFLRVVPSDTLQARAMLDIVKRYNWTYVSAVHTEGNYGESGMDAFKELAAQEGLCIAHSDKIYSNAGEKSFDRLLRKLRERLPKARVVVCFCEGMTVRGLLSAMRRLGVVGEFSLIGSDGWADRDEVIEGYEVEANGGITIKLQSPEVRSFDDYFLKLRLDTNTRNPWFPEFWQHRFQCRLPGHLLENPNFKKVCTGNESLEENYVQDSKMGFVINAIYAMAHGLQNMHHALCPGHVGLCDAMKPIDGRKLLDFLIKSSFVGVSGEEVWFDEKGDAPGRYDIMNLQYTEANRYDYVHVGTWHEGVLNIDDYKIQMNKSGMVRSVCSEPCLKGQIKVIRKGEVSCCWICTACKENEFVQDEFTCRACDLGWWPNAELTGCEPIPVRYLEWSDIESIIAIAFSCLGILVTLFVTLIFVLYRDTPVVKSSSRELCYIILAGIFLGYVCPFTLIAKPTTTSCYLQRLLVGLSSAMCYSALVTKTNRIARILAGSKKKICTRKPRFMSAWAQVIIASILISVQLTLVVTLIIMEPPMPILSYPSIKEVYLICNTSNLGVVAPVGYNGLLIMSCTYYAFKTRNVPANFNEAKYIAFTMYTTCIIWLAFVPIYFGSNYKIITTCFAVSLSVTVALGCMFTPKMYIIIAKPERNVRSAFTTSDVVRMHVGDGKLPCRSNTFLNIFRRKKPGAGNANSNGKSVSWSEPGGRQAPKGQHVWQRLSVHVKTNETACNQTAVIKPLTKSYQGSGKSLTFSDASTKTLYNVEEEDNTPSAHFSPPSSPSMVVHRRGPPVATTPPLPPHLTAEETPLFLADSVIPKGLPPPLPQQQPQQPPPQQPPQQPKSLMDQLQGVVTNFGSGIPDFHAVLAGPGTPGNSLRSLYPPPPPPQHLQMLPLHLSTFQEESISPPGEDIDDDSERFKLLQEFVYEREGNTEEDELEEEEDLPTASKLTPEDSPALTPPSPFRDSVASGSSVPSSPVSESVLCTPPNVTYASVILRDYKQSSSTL
# Protocol: (§2) NIH3T3 cells expressed mGluR1 α and mGluR5a individually were cultured in DMEM medium containing 10% dialyzed fetal bovine serum and 100 units/ml, 0.1 mg/ml streptomycin sulfate. CHO cells which expressed mGluR2, R3, R4, R6 and R7 individually were cultured in DMEM medium containing 10% dialyzed fetal bovine serum, 100 units/ml, 0.1 mg/ml streptomycin sulfate and 2 mM glutamine. Hydrolysis of phosphatidylinositol was measured as previously described (Nature, 383, 89-92, 1996) using the mGluR1 α-expressing cells incorporated ^3H-inositol.
# mGluR7 = target: T4, mGluR7 (Rattus norvegicus, UniProt P35400); test: forskolin-induced cAMP formation in mGluR7-expressing CHO cells; type: cell-based; details: up to 100 μM
# T4 construct: expressed in transfected cells; host or cells: CHO
# T4 sequence (P35400 35-915): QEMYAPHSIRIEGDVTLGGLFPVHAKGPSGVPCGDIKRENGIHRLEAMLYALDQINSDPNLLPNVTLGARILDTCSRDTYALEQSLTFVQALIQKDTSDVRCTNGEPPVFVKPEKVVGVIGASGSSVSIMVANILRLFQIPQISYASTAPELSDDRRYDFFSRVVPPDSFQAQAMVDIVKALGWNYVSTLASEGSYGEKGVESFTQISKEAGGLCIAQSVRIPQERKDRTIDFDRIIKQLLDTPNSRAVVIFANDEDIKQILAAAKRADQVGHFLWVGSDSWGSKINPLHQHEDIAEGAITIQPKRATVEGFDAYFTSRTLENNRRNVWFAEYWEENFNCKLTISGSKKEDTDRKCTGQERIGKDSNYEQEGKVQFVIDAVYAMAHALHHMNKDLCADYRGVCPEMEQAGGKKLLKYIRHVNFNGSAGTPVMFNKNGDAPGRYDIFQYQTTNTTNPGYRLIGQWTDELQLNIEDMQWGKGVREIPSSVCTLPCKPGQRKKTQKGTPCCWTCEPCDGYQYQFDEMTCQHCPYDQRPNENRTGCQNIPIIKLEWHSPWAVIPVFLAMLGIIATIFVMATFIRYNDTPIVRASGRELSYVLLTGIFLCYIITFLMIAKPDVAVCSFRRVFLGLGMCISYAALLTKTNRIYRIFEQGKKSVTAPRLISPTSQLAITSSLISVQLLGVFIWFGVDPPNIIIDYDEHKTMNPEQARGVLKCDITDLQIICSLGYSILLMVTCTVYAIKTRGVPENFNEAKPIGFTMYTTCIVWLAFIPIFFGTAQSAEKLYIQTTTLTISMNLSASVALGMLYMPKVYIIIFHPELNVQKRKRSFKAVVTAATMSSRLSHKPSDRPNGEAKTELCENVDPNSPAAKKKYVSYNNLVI
# Protocol: as §1
# mGluR5 = target: T5, mGluR5 (Rattus norvegicus, UniProt P31424); test: agonist/antagonist activity in mGluR5a-expressing NIH3T3 cells; type: cell-based; details: up to 10 μM
# T5 construct: expressed in transfected cells; host or cells: NIH3T3
# Protocol: as §2, with “glutamine.” for “glutamine. Hydrolysis of phosphatidylinositol was measured as previously described (Nature, 383, 89-92, 1996) using the mGluR1 α-expressing cells incorporated ^3H-inositol.”
# mGluR3 = target: T6, mGluR3 (Rattus norvegicus, UniProt P31422); test: forskolin-induced cAMP formation in mGluR3-expressing CHO cells; type: cell-based; details: up to 100 μM
# T6 construct: expressed in transfected cells; host or cells: CHO
# Protocol: as §1
# [2] = test system: Fischer-344 rat, permanent left MCA occlusion; test: permanent MCA occlusion model, cerebral infarct volume (TTC staining); type: in vivo; details: 6 mg/kg/h i.v. continuously for 24 hours from 5 minutes after occlusion
# Protocol: Compound A was dissolved in physiological saline and adjusted to 6 mg/3 ml. In accordance with the known method (J. Pharmacol. Exp. Thr., 276, 84-92, 1996), left MCA of a Fischer-344 rat was subjected to permanent occlusion and, 5 minutes thereafter, the compound A was intravenously administered continuously for 24 hours at a rate of 6 mg/a dose volume of 3 ml/kg/h under no anesthesia and no restriction. After completion of the administration, the animal was decapitated to excise the brain which was subsequently stained with 2,3,5-triphenyltetrazolium hydrochloride (TTC) to measure infarct volume.
# mGluR2 = target: T7, mGluR2 (Rattus norvegicus, UniProt P31421); test: forskolin-induced cAMP formation in mGluR2-expressing CHO cells; type: cell-based; details: up to 100 μM
# T7 construct: expressed in transfected cells; host or cells: CHO
# T7 sequence (P31421 19-872): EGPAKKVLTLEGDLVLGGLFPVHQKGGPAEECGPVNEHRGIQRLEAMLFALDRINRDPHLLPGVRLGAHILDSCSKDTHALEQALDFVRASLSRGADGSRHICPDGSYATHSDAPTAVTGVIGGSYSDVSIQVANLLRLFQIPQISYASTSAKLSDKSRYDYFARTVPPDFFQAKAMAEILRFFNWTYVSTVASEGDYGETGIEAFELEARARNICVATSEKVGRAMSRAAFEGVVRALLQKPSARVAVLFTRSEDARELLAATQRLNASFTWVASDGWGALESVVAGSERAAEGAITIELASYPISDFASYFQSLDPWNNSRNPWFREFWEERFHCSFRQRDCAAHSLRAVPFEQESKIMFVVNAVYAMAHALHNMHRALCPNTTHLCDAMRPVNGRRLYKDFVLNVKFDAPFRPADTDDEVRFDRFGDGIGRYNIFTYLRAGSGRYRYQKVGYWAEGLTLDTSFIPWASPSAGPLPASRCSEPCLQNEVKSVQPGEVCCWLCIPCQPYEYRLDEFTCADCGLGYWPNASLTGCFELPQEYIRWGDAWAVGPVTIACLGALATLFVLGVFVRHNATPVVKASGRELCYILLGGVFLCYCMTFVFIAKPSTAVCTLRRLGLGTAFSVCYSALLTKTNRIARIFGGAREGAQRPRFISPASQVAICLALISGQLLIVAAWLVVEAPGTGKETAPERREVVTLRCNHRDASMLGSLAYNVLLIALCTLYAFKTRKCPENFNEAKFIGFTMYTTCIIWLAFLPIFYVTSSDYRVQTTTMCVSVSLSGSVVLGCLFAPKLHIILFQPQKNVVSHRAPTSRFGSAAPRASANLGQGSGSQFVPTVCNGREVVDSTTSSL
# Protocol: as §1
# T1 sequence (P31423 33-912): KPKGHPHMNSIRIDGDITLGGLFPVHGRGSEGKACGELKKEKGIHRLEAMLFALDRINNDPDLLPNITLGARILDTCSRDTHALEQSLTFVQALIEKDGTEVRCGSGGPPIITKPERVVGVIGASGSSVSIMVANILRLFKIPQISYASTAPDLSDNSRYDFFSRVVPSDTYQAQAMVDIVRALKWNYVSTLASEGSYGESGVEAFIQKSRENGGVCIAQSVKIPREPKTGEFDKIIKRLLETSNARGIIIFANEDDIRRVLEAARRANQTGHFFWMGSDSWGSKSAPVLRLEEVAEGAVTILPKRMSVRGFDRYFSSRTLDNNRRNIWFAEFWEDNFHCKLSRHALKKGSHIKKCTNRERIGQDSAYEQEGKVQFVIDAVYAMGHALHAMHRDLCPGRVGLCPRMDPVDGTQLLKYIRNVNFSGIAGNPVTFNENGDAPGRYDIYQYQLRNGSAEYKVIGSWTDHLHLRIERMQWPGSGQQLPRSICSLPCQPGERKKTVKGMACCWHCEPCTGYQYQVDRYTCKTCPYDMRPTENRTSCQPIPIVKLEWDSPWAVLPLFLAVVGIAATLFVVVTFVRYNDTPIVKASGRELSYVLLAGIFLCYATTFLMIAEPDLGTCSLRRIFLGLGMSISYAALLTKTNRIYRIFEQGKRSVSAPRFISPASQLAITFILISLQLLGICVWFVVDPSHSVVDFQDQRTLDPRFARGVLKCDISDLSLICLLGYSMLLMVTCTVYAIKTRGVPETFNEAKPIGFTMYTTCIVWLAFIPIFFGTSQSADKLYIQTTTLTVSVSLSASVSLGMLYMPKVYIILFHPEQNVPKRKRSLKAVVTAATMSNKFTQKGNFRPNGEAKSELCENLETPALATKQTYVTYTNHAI
compound,measurement,setting,value
"N[C@H](C(=O)O)c1ccc(C(=O)O)c(O)c1 [4 C3 HPG, (S)-4-carboxy-3 hydroxyphenylglycine]",neuroprotective effectiveness in the same gerbil model,[1],is effective
"N[C@H](C(=O)O)c1ccc(C(=O)O)cc1 [4 CPG, (S)-4-carboxyphenylglycine]",neuroprotective effectiveness in the same gerbil model,[1],is not effective
NC1(C(=O)O)CCc2cc(C(=O)O)ccc21 (stereo not shown) [AIDA],loss of neuronal cells in CA1 area,[1]; intraventricular administration,reduced the loss of the neuronal cells
"Cc1c(C(=O)N(C)C2CCCCC2)sc2nc3ccc(N)cc3n12.Cl.Cl [compound A, 6-amino-N-cyclohexyl-N,3-dimethylthiazolo[3,2-a]benzoimidazole-2-carboxamide dihydrochloride]",agonist and antagonist activities against mGluR4,mGluR4,no agonist and antagonist activities
same,agonist and antagonist activities against mGluR6,mGluR6,no agonist and antagonist activities
same,IC50,mGluR1α,24 nM
same,agonist and antagonist activities against mGluR7,mGluR7,no agonist and antagonist activities
same,agonist and antagonist activities against mGluR5,mGluR5,no agonist and antagonist activities
same,agonist and antagonist activities against mGluR3,mGluR3,no agonist and antagonist activities
same,cerebral infarct volume suppression ratio in cerebral cortex,[2],36%
same,cerebral infarct volume suppression ratio in cerebral hemisphere,[2],29%
same,effect on cerebral infarct volume versus controls,[2],reduced the cerebral infarct volume significantly
same,agonist and antagonist activities against mGluR2,mGluR2,no agonist and antagonist activities
